Reference: patent US8318724B2, “Small molecule inhibitors of MRP1 and other multidrug transporters” (The Cleveland Clinic Foundation, priority 2004, dated 2012)

Assays:
MCF7/VP cells = assay: Sensitization of MRP1-expressing MCF7/VP cells to chemotherapeutic drugs (methylene blue assay); format: cell-based; conditions: for folds of sensitization of MCF7/VP cells to cisplatin: cisplatin is not an MRP1 substrate; for folds of sensitization of MCF7/VP cells to doxorubicin / folds of sensitization of MCF7/VP cells to etoposide / folds of sensitization of MCF7/VP cells to vincristine: ratio of LD50 in the presence and in the absence of the compound
Protocol: Cells in 96-well plates (5×10^3 per well) were incubated with different concentrations of vincristine in the presence of 5 μM of the candidate compounds for 3 days. Cell numbers then were estimated using methylene blue assay. […] Verapamil (10 μM) was used as control.
FIG. 6 illustrates the effect of the identified inhibitor compounds on cell sensitivity to doxorubicin and vincristine. Cells (with or without MRP1 expression) were incubated 24 hours with the indicated concentrations of vincristine or doxorubicin followed by incubation for additional 48 hours in drugfree media. Cell numbers were quantified by standard methylene blue assay.
(§1) Fold of sensitization is calculated as a ratio of LD50 in the presence and in the absence of the inhibitor compound (see FIG. 6).
FIG. 8 illustrates the effects of the identified inhibitor compounds on sensitivity of MRP1-positive and MRP1-negative cells to vincristine. Fold of sensitization again is calculated as the ratio of LD50 in the presence and in the absence of the inhibitor compound (see FIG. 6).
FIG. 9 illustrates the effects of the identified inhibitor compounds on sensitivity of MRP1-positive and MRP1-negative cells to etoposide. Fold of sensitization again is calculated as the ratio of LD50 in the presence and in the absence of the inhibitor compound (see FIG. 6).
FIG. 10 illustrates the effects of the identified inhibitor compounds on sensitivity of MRP1-positive and MRP1-negative cells to taxol and cisplatin. Fold of sensitization again is calculated as the ratio of LD50 in the presence and in the absence of the inhibitor compound (see FIG. 6).

MRP2 = MRP2 (Homo sapiens, UniProt Q92887); assay: Sensitization to doxorubicin of cells expressing multidrug transporter MRP2; format: cell-based; conditions: ratio of LD50
Sequence of MRP2 (Q92887 whole entry, species assumed): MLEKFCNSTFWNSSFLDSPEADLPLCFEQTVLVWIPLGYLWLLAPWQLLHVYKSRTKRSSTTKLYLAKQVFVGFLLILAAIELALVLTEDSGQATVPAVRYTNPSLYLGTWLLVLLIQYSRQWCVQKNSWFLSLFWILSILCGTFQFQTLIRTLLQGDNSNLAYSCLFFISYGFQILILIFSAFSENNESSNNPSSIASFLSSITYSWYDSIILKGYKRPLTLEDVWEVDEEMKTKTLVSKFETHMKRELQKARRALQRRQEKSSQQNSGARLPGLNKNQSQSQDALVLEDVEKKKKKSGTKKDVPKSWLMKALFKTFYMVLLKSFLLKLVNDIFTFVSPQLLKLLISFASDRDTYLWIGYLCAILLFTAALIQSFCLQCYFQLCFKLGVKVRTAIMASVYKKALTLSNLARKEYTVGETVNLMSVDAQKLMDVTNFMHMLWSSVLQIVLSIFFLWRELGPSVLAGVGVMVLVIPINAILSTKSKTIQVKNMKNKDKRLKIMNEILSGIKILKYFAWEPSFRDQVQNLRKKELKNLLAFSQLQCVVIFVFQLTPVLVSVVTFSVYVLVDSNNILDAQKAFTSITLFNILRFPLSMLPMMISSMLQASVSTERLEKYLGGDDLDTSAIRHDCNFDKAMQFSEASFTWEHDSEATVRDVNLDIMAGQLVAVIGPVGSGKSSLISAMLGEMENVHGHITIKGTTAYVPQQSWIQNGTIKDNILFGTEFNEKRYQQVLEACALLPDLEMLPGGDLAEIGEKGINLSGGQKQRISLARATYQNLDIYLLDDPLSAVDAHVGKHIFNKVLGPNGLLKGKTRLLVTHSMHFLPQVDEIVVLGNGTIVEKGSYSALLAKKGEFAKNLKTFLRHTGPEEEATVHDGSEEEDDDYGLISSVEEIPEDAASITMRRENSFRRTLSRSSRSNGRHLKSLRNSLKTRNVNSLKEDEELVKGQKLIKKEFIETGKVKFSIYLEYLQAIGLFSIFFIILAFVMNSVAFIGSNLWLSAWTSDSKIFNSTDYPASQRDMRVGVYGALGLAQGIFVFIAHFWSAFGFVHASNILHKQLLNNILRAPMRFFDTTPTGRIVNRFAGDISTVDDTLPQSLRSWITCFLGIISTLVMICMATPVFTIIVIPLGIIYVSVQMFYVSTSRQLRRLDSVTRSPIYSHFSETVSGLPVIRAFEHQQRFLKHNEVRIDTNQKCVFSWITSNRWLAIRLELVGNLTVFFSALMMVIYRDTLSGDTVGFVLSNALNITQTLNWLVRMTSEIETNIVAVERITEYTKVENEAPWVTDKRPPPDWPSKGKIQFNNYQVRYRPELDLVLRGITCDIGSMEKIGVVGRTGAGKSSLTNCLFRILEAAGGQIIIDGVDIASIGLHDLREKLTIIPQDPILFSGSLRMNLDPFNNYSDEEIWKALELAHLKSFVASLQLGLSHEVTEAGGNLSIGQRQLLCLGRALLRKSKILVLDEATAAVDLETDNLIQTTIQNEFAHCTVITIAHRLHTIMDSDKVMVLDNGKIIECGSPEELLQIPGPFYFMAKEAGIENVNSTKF
Protocol: as §1
(§2) Fold of sensitization again is calculated as the ratio of LD50 in the presence and in the absence of the inhibitor compound (see FIG. 6).

MDR3 = assay: Sensitization to doxorubicin of cells expressing multidrug transporter MDR3; format: cell-based; conditions: ratio of LD50
Protocol: as §1, §2

MRP1 [1] = biological target: T1, MRP1 (Homo sapiens, UniProt P33527); assay: Sensitization to doxorubicin of cells expressing multidrug transporter MRP1; format: cell-based; conditions: ratio of LD50
T1 construct: MCF7/VP breast cancer cells (24), which have amplified and overexpressed MRP1, but negligible Pgp expression; endogenous in cells; host or cells: MCF7/VP (MCF7/VP clone 14) breast cancer cells
T1 sequence (P33527 whole entry): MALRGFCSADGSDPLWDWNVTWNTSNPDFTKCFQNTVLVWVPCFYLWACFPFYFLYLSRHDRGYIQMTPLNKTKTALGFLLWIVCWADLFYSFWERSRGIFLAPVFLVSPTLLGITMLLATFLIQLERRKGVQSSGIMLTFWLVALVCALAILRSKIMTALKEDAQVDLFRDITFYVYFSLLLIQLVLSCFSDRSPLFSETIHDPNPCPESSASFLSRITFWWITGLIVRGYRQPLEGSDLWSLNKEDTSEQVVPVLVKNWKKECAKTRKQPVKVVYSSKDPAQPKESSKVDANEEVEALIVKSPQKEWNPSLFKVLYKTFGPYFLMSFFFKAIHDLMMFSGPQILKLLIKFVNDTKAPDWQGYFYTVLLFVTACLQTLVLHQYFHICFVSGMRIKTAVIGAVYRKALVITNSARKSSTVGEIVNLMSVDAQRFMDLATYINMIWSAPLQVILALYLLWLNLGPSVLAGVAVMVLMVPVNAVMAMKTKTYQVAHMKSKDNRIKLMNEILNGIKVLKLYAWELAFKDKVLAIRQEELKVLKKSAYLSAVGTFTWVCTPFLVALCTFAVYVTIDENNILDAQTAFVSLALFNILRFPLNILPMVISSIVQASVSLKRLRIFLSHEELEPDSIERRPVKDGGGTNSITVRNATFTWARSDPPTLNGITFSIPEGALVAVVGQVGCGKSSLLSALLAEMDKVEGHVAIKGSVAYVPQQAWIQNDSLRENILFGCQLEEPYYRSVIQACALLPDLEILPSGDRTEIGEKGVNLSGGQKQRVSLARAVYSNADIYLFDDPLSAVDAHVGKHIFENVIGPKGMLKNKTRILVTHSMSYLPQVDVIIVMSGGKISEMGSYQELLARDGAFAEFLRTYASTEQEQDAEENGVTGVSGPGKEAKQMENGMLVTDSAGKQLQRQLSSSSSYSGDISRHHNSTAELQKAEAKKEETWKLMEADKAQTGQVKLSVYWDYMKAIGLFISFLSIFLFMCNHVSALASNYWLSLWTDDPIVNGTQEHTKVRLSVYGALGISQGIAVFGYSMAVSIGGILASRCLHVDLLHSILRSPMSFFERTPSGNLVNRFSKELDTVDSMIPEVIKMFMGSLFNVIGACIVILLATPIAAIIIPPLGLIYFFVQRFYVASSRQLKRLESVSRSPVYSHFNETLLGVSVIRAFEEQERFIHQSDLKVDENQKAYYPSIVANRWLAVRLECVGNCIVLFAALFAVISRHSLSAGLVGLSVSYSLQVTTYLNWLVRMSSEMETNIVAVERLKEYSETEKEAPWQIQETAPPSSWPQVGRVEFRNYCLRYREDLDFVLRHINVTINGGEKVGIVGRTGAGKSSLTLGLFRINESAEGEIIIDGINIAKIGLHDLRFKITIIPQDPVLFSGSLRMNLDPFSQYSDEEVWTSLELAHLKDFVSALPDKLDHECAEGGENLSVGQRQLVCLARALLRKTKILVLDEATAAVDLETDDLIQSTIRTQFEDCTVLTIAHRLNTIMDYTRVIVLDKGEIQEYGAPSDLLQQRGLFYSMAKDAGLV
Protocol: as §1, §2

MDR1 = MDR1 (Homo sapiens, UniProt P08183)
Sequence of MDR1 (P08183 whole entry): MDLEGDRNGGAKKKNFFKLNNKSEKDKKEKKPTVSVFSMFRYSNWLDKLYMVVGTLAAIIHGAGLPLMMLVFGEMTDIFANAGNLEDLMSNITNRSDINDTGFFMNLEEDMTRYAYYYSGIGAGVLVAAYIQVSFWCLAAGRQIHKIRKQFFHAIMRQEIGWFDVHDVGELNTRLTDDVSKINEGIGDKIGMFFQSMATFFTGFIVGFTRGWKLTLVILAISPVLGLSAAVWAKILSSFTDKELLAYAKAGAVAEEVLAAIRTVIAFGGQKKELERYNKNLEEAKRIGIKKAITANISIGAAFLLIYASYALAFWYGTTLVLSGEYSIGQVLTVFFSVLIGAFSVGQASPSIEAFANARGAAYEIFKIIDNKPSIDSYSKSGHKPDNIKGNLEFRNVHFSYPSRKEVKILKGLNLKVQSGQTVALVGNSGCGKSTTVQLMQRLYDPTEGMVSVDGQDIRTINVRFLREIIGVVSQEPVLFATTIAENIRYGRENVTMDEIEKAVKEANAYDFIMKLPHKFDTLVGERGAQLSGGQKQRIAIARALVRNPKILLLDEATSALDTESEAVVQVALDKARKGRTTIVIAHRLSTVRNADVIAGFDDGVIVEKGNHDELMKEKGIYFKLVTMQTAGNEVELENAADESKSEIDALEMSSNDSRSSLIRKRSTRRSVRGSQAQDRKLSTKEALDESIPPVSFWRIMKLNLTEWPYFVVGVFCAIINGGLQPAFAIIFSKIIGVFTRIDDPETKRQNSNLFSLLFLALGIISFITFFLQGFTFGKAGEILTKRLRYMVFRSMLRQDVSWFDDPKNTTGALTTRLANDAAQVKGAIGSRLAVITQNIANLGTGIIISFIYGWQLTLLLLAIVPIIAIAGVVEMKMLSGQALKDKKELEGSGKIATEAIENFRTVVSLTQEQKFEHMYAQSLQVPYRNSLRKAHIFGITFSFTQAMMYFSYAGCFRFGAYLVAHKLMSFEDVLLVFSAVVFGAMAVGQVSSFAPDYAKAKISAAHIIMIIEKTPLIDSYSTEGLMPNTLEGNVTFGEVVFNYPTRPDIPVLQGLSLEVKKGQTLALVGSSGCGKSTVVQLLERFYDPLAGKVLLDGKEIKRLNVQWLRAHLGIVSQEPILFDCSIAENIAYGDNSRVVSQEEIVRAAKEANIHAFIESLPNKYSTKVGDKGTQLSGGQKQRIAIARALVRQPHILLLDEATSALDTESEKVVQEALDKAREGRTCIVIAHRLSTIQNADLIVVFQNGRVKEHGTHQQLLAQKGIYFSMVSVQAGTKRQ
Protocol: as §1, §2

GL15 and 8 MG cell lines = conditions: both glioma cell lines; cited from earlier work
MRP1 [2] = biological target: T1, MRP1; assay: Dose dependence of drug sensitization effect, 4H10 vs MK571 (FIG. 14); format: cell-based; conditions: three different lots of 4H10
NB = assay: In vivo efficacy in mouse model of NB in combination with chemotherapeutic agents (FIG. 20)
Excerpt: The test was a clinically relevant mouse model of NB that closely reflects the human disease (n=10, unless otherwise noted).

[3] = In vivo toxicity, mouse weight after single i.p. injection (FIG. 19); conditions: up to 100 mg/kg
Excerpt: In particular, one parameter for testing toxicity is a weight loss of greater the […] of the body weight of a test mouse.

NB cells = assay: Direct toxicity toward NB cell lines (FIG. 18); format: cell-based; conditions: different lots of compound
MRP1 [4] = biological target: T1, MRP1; assay: Daunorubicin retention / efflux assay (FIG. 12); format: cell-based; conditions: daunorubicin 2 hours with compound, then 1 hour drug-free medium; retained daunorubicin
Protocol: FIG. 12 classifies the identified inhibitor compounds according to their strength as inhibitors of […] by MRP1. Cells were treated with daunorubicin in the presence of a test compound or a control for 2 hours, followed by incubation in fresh drug-free medium for 1 hour. Retained daunorubicin levels were measured to determine the effect of the inhibitor compounds on efflux activities.

Compound: Cc1nnc(SCC(=O)N/N=C/c2cccc3cccnc23)n1-c1ccccc1 [Compound 17A08]
- folds of sensitization of MCF7/VP cells to cisplatin (MCF7/VP cells): 1.1 folds
- folds of sensitization of MCF7/VP cells to doxorubicin (MCF7/VP cells): 3.6 folds
- folds of sensitization of MCF7/VP cells to etoposide (MCF7/VP cells): 5 folds
- folds of sensitization of MCF7/VP cells to vincristine (MCF7/VP cells): 3 folds
- folds of sensitization of doxorubicin, cells expressing MRP2 (MRP2): 1.4 folds
- folds of sensitization of doxorubicin, cells expressing MDR3 (MDR3): 1.3 folds
- folds of sensitization of doxorubicin, cells expressing MRP1 (MRP1 [1]): 1.1 folds
- folds of sensitization of doxorubicin, cells expressing MDR1 (MDR1): 2 folds

Compound: CCCN(CCC)S(=O)(=O)c1ccc(C(=O)O)cc1 [probenecid]
- accumulation of vincristine and etoposide (GL15 and 8 MG cell lines): increased the accumulation

Compound: COc1ccc2c(c1)c(CC(=O)O)c(C)n2C(=O)c1ccc(Cl)cc1 [Indomethacin]
- accumulation of vincristine and etoposide (GL15 and 8 MG cell lines): increased the accumulation

Compound: O=C(NCCCN1CCOCC1)c1cnn2c(-c3ccccc3)cc(-c3ccccc3)nc12 [Compound 4H10]
- concentrations showing drug sensitization effect (MRP1 [2]): submicromolar
- folds of sensitization of MCF7/VP cells to cisplatin (MCF7/VP cells): 1.2 folds
- folds of sensitization of MCF7/VP cells to doxorubicin (MCF7/VP cells): 3.8 folds
- folds of sensitization of MCF7/VP cells to etoposide (MCF7/VP cells): 58 folds
- folds of sensitization of MCF7/VP cells to vincristine (MCF7/VP cells): 14.2 folds
- effectiveness compared with BSO (NB): much more effective than BSO
- effect on mouse weight ([3]; 30 days): did not adversely affect mouse weight
- in vivo toxicity ([3]; 30 days of observation): lack of in vivo toxicity
- folds of sensitization of doxorubicin, cells expressing MRP2 (MRP2): 3.3 folds
- folds of sensitization of doxorubicin, cells expressing MDR3 (MDR3): 0.9 folds
- folds of sensitization of doxorubicin, cells expressing MRP1 (MRP1 [1]): 4.1 folds
- direct toxicity against NB cells (NB cells): no direct toxicity
- folds of sensitization of doxorubicin, cells expressing MDR1 (MDR1): 4.5 folds
- strength as inhibitor of daunorubicin efflux by MRP1 (MRP1 [4]): most potent inhibitor

Compound: CCN(CC)CCCNC(=O)c1cnn2c(C(F)(F)F)cc(-c3ccc(C)cc3)nc12 [Compound 4E10]
- folds of sensitization of MCF7/VP cells to cisplatin (MCF7/VP cells): 1.25 folds
- folds of sensitization of MCF7/VP cells to doxorubicin (MCF7/VP cells): 3.2 folds
- folds of sensitization of MCF7/VP cells to etoposide (MCF7/VP cells): 27 folds
- folds of sensitization of MCF7/VP cells to vincristine (MCF7/VP cells): 12 folds
- folds of sensitization of doxorubicin, cells expressing MRP2 (MRP2): 7 folds
- folds of sensitization of doxorubicin, cells expressing MDR3 (MDR3): 0.6 folds
- folds of sensitization of doxorubicin, cells expressing MRP1 (MRP1 [1]): 3.7 folds
- folds of sensitization of doxorubicin, cells expressing MDR1 (MDR1): 2.0 folds

Compound: c1ccc(-c2cn3c4ccccc4nc3n2CCN2CCCCC2)cc1 [Compound 14C08]
- folds of sensitization of MCF7/VP cells to cisplatin (MCF7/VP cells): 1.05 folds
- folds of sensitization of MCF7/VP cells to doxorubicin (MCF7/VP cells): 4.0 folds
- folds of sensitization of MCF7/VP cells to etoposide (MCF7/VP cells): 18 folds
- folds of sensitization of MCF7/VP cells to vincristine (MCF7/VP cells): 14 folds
- folds of sensitization of doxorubicin, cells expressing MRP2 (MRP2): 1.3 folds
- folds of sensitization of doxorubicin, cells expressing MDR3 (MDR3): 0.6 folds
- folds of sensitization of doxorubicin, cells expressing MRP1 (MRP1 [1]): 3.0 folds
- folds of sensitization of doxorubicin, cells expressing MDR1 (MDR1): 3.7 folds

Compound: C=CCSc1nnc2n(-c3ccccc3)c(=O)c3c4c(sc3n12)CCC4 [Compound 9C06]
- folds of sensitization of MCF7/VP cells to cisplatin (MCF7/VP cells): 1.5 folds
- folds of sensitization of MCF7/VP cells to doxorubicin (MCF7/VP cells): 3.3 folds
- folds of sensitization of MCF7/VP cells to etoposide (MCF7/VP cells): 12 folds
- folds of sensitization of MCF7/VP cells to vincristine (MCF7/VP cells): 16 folds
- folds of sensitization of doxorubicin, cells expressing MRP2 (MRP2): 4.3 folds
- folds of sensitization of doxorubicin, cells expressing MDR3 (MDR3): 0.4 folds
- folds of sensitization of doxorubicin, cells expressing MRP1 (MRP1 [1]): 3.3 folds
- folds of sensitization of doxorubicin, cells expressing MDR1 (MDR1): 3.7 folds

Compound: CC(Sc1nnc(-c2ccco2)n1-c1ccccc1)C(=O)NC(c1ccccc1)c1ccccc1 (stereo not shown) [Compound 4G05]
- folds of sensitization of MCF7/VP cells to cisplatin (MCF7/VP cells): 1.1 folds
- folds of sensitization of MCF7/VP cells to doxorubicin (MCF7/VP cells): 1.6 folds
- folds of sensitization of MCF7/VP cells to etoposide (MCF7/VP cells): 2 folds
- folds of sensitization of MCF7/VP cells to vincristine (MCF7/VP cells): 3 folds
- folds of sensitization of doxorubicin, cells expressing MRP2 (MRP2): 1.5 folds
- folds of sensitization of doxorubicin, cells expressing MDR3 (MDR3): 2.4 folds
- folds of sensitization of doxorubicin, cells expressing MRP1 (MRP1 [1]): 1.75 folds
- folds of sensitization of doxorubicin, cells expressing MDR1 (MDR1): 4.6 folds

Compound: O=C(NCCN1CCOCC1)c1cnn2c(-c3ccccc3)cc(-c3ccccc3)nc12 [Compound 4E11]
- folds of sensitization of MCF7/VP cells to cisplatin (MCF7/VP cells): 1.1 folds
- folds of sensitization of MCF7/VP cells to doxorubicin (MCF7/VP cells): 2.7 folds
- folds of sensitization of MCF7/VP cells to etoposide (MCF7/VP cells): 34 folds
- folds of sensitization of MCF7/VP cells to vincristine (MCF7/VP cells): 10.5 folds
- folds of sensitization of doxorubicin, cells expressing MRP2 (MRP2): 6.5 folds
- folds of sensitization of doxorubicin, cells expressing MDR3 (MDR3): 0.7 folds
- folds of sensitization of doxorubicin, cells expressing MRP1 (MRP1 [1]): 3.9 folds
- folds of sensitization of doxorubicin, cells expressing MDR1 (MDR1): 4.2 folds
